In data set [1] the target is T1, Melanin-concentrating hormone receptor 1 (Homo sapiens, UniProt Q99705). Briefly: Antagonist activity at human MCH1R expressed in CHO cells assessed as inhibition of MCH-induced response at 5 uM. The data set is classed as functional, cell-based.
The target in data set [2] is T1, Melanin-concentrating hormone receptor 1. The data set is described as follows: Antagonist activity at human MCH1R expressed in CHO cells assessed as inhibition of MCH-induced response. It counts as functional, cell-based.
Data set [3] addresses T2, Dipeptidyl peptidase 4 (Homo sapiens, UniProt P27487). The data set is described as follows: Inhibition of human recombinant DPP4 using H-Gly-Pro-7-amino-4-methylcoumarin as substrate assessed as inhibition of 7-amino-4-methylcoumarin formation after 30 mins by fluorimetry.
Data set [4] deals with T1, Melanin-concentrating hormone receptor 1. The data set is described as follows: Antagonist activity at human MCH1R expressed in forskolin-stimulated CHO cells assessed as inhibition of MCH-induced cAMP accumulation after 90 mins. It counts as functional, cell-based. (In general: Changes in cAMP serve as a functional read-out for many G protein-coupled receptors.)
For data set [5], the target named is Dipeptidyl peptidase 9 (Homo sapiens, UniProt Q86TI2). Briefly: Inhibition of DPP9.
Data set [6] addresses Dipeptidyl peptidase 8 (Homo sapiens, UniProt Q6V1X1). Briefly: Inhibition of DPP8.
Data set [7] deals with Voltage-gated inwardly rectifying potassium channel KCNH2 (Homo sapiens, UniProt Q12809).
Data set [8] is described as follows: Lipophilicity, log D of the compound at pH 7.4. The data set is classed as physicochemical. The note with it: buffer.
For data set [9], the target named is T2, Dipeptidyl peptidase 4. The data set is described as follows: Inhibition of DPP4.

Some results are limits rather than exact numbers.

T2 sequence (P27487 whole entry): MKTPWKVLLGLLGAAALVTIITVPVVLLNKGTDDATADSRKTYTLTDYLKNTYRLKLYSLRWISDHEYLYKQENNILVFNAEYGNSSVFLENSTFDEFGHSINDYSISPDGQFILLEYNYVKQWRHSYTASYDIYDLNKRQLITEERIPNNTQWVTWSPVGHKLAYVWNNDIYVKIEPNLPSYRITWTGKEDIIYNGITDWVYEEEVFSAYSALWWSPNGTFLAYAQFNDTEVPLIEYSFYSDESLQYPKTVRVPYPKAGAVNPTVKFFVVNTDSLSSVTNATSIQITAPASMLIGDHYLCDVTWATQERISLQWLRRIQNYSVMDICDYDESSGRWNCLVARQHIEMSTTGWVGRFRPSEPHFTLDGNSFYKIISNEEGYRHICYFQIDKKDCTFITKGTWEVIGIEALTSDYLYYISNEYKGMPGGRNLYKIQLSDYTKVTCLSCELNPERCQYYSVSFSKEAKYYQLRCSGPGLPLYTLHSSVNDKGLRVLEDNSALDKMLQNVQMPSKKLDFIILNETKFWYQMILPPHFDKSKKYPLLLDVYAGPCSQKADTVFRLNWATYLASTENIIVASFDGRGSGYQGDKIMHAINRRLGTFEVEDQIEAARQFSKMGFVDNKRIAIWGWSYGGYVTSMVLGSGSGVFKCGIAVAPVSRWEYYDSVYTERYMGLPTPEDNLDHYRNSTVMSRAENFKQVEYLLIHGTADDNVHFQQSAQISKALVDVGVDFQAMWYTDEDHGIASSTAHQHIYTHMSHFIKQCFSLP
T1 sequence (Q99705 whole entry): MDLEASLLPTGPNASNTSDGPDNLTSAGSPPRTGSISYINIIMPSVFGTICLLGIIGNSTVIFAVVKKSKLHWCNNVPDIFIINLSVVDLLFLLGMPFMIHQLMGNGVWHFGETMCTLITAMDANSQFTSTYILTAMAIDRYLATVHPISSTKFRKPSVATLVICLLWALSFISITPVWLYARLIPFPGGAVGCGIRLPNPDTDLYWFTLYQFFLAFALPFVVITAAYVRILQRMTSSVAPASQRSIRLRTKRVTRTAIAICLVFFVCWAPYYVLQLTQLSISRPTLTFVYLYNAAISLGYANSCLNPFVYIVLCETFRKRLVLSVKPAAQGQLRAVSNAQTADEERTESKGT
Dipeptidyl peptidase 9, sequence (Q86TI2 whole entry): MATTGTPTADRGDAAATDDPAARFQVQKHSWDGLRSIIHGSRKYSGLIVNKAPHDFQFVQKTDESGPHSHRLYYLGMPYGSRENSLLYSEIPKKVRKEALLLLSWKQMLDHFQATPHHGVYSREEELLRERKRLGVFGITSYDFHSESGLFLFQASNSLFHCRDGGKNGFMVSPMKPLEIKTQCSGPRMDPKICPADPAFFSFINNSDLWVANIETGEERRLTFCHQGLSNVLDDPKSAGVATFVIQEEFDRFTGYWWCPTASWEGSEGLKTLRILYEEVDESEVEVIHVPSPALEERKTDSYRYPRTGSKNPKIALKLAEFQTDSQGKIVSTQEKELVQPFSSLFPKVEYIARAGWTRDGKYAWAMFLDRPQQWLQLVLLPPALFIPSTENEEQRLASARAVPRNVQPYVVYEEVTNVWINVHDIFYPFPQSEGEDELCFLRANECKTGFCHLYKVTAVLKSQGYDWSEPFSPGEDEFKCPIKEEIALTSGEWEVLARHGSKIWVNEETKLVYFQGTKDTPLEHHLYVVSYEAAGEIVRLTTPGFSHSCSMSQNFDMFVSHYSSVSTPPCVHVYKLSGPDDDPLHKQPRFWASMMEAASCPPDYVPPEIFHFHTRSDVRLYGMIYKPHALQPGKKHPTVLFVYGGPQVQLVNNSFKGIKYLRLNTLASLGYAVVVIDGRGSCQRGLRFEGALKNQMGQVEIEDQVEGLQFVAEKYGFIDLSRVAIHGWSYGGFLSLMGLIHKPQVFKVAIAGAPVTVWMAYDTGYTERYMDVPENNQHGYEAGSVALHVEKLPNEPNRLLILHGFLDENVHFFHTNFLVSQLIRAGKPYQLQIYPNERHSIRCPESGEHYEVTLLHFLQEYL
Dipeptidyl peptidase 8, sequence (Q6V1X1 whole entry): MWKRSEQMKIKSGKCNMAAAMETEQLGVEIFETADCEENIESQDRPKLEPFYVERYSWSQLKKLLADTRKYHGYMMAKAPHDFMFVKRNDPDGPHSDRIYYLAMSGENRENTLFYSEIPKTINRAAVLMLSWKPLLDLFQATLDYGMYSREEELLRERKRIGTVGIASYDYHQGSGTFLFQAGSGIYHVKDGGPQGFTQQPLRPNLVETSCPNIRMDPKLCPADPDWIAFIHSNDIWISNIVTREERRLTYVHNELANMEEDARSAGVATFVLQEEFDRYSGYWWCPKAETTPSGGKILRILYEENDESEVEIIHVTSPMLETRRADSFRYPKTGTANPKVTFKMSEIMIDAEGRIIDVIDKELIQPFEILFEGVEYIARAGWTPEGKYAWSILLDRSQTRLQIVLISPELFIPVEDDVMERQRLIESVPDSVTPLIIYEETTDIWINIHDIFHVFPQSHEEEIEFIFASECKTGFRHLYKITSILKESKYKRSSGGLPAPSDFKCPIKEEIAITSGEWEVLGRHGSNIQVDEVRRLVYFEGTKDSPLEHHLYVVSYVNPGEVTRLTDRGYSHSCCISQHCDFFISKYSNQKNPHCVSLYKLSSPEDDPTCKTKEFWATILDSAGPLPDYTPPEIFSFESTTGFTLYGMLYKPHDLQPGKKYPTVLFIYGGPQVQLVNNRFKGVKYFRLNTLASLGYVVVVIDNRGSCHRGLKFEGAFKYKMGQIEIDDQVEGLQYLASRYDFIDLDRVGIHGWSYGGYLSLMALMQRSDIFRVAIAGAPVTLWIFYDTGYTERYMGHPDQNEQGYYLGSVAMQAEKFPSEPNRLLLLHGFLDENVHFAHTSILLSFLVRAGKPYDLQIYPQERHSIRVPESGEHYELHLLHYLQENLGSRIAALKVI
Voltage-gated inwardly rectifying potassium channel KCNH2, sequence (Q12809 whole entry): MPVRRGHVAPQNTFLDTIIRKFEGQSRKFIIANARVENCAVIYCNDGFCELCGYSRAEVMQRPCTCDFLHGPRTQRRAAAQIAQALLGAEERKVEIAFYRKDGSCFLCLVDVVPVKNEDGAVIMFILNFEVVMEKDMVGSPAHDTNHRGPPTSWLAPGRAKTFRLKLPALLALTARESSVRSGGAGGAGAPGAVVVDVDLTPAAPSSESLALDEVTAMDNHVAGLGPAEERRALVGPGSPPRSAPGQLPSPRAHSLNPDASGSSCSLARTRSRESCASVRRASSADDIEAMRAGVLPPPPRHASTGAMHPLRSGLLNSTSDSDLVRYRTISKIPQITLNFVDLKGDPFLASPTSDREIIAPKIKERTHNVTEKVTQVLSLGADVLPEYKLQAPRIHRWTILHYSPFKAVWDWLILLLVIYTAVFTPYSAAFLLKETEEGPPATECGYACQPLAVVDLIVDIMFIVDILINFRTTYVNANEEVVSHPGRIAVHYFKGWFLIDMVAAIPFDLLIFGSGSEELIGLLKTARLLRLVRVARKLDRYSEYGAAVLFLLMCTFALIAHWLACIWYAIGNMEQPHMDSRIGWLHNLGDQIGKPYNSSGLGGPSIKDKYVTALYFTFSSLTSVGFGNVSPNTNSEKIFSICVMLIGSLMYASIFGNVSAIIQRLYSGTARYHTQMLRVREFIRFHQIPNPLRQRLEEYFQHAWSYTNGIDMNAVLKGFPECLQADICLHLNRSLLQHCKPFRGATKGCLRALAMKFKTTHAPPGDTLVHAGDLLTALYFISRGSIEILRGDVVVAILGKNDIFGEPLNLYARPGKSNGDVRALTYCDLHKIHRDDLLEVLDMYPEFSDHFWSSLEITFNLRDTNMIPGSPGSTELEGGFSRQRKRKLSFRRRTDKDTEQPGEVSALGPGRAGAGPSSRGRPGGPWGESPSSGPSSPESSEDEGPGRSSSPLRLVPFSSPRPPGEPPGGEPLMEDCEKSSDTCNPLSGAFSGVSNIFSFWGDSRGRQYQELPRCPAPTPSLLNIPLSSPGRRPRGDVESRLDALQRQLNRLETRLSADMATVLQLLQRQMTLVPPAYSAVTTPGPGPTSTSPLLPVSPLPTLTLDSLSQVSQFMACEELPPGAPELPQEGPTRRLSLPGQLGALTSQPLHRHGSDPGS

As a reminder, the inhibition is the change of the read-out against control, counted positive when it falls. For orientation: IC50 means the concentration at which inhibition is half-maximal. With `N[C@H]1CN(c2ccc(CCNC(=O)c3ccc(OCC4CC4)cc3)cn2)C[C@@H]1c1cc(F)ccc1F`, the inhibition in data set [1] stood at 43%. The IC50 in data set [2] was 3800 nM.

By Ki is commonly meant a dissociation constant, usually derived from enzyme kinetics or from competition with a known ligand. As to `N[C@@H]1CCN(c2ccc(-n3ccc(OCc4ccccc4)cc3=O)cn2)C1`, the IC50 in data set [3] was above 100000 nM; in data set [5] it was above 100000 nM; in [2] it was 20 nM; in [6], above 100000 nM. Further, the Ki in data set [4] was 6 nM.

For the molecule `N[C@H]1CN(c2ccc(-n3ccc(OCc4ccccc4)cc3=O)cn2)CC[C@@H]1c1cc(F)c(F)cc1F`, the IC50 was 350 nM in data set [3], above 50000 nM in [5], 440 nM in [2] and above 50000 nM in data set [6].

Consider `CCCCOc1ccc2c(c1)CCN(c1ccc(N3C[C@H](c4cc(F)ccc4F)[C@@H](N)C3)nc1)C2=O`, for which the inhibition in data set [1] stood at 44%. Moreover, in data set [2], the IC50 is 4000 nM.

On to `N[C@H]1CN(c2ccc(-n3ccc(-c4ccccc4)cc3=O)cn2)C[C@@H]1c1cc(F)ccc1F`, for which, in [1], the inhibition amounted to 39%.

What is called logD is the decadic logarithm of the distribution of all forms, ionised or not, between an organic phase and buffer at a given pH. Consider `N[C@H]1CN(c2ccc(-n3ccc(OCc4ccccc4)cc3=O)cn2)C[C@@H]1c1cc(F)c(F)cc1F`, for which the IC50 in data set [7] was 6100 nM; in [3] it was 1100 nM; in data set [2], 110 nM. In data set [8], this molecule displayed a logD of 3.4.

For the molecule `CC(C)COc1ccc(CC(=O)Nc2ccc(N3C[C@H](c4cc(F)ccc4F)[C@@H](N)C3)nc2)cc1`, the inhibition in data set [1] was determined as 35%.

`N[C@H]1CN(c2ccc(-n3ccc(OCc4ccccc4)cc3=O)cn2)C[C@@H]1c1cc(F)ccc1F`: the figures for the IC50 in data set [3] and in data set [2] were 1650 nM and 140 nM, respectively. In addition, in [1], the inhibition is 104%.

As for `N[C@H]1CN(c2ccc(-n3ccnc(CCCc4ccccc4)c3=O)cn2)C[C@@H]1c1cc(F)ccc1F`, the inhibition in data set [1] was found to be 52%. For the same molecule, the IC50 in data set [2] was above 3000 nM.

`N[C@H]1CN(c2cc(-c3ccccc3)ncn2)CC[C@@H]1c1cc(F)c(F)cc1F` came in with a Ki in data set [9] of 6 nM.

Values taken from ChEMBL document CHEMBL2010730, “An example of designed multiple ligands spanning protein classes: dual MCH-1R antagonists/DPPIV inhibitors” (Bioorg Med Chem Lett, 2012).
